# Experimental data from article PMC6286348, “Inhibitor binding mode and allosteric regulation of Na^+-glucose symporters” (Nature Communications, 2018).
# Changes are numbered by the printed parent chain.
# Legend:
# [1] = test system: hSGLT1 F453C; design: method as in PMID 22159082; conditions: oocytes, 22 °C; cited from earlier work
# [2] = target: T1, hSGLT1 D268H (Homo sapiens, UniProt P13866, D268H); experiment: SGLT current measurement in oocytes, hSGLT1 D268H; type: cell-based; conditions: 10 mM αMDG, Vm = −50 mV; oocytes, 22 °C
# T1 construct: expressed in transfected cells; host or cells: Xenopus laevis oocytes injected with cRNA
# T1 sequence (P13866 1-664 D268H): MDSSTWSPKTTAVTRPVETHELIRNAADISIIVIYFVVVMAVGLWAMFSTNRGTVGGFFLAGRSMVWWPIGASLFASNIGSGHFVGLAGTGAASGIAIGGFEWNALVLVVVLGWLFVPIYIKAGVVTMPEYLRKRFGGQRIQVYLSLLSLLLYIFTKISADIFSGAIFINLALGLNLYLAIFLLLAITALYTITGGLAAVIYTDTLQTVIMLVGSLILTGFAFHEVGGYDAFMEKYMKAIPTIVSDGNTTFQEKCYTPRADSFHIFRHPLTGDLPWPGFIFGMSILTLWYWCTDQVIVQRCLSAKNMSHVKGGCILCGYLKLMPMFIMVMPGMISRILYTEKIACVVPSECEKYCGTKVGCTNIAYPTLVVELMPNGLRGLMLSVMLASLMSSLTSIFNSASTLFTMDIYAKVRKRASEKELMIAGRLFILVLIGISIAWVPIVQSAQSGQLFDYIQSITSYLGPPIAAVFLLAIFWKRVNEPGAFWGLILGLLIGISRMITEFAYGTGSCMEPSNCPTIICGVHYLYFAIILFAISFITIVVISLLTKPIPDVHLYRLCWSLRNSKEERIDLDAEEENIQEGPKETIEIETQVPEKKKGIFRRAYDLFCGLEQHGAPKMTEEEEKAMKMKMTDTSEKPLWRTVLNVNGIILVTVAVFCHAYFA
# Experimental: (§1) Xenopus laevis (Nasco) oocytes (V–VI) were prepared as previously described[20] and injected with 50 nl of cRNA (1 μg/μl). […] Briefly, oocytes were incubated for 30 min in the presence of 50 μM αMDG (5 μM [^14C]αMDG) in a buffer containing (in mM) 100 NaCl, 2 KCl, 1 MgCl2, 1 CaCl2, and 10 N-(2-hydroxyethyl)piperazine-N′-(2-ethanesulfonic acid) (HEPES)/Tris (pH 7.5). After incubation, oocytes were rinsed thoroughly with ice-cold buffer containing (mM) 100 choline Cl^–, 2 KCl, 1 MgCl2, 1 CaCl2, and 10 HEPES/Tris (pH 7.5), individually lysed with 5% sodium dodecyl sulfate, and assayed for radioactivity.
# (§2) Injected oocytes were incubated at 18 °C, and after 3–4 days, two electrode voltage clamp experiments were performed as previously described. Briefly, SGLT inward glucose currents were measured as a function of the external Na^+ (0–100 mM NaCl), sugar (0–100 mM αMDG), and inhibitors (0.001–100 μM). Steady-state and hSGLT1 capacitive currents were recorded using voltage steps from a holding voltage, Vh of −60 mV, to voltages in the range of −180 to +50 mV in 20 mV increments. The apparent affinity of αMDG, K0.5, was estimated from plots of the inward current as a function of the external αMDG concentration. […] The Na^+-to-αMDG stoichiometry was determined from the reversal potential measurements using the Gibbs free energy as previously described. […]
# [3] = target: T2, hSGLT1 T395A (Homo sapiens, UniProt P13866, T395A); experiment: SGLT current measurement in oocytes, hSGLT1 T395A; type: cell-based; conditions: 22 °C
# T2 construct: expressed in transfected cells; host or cells: Xenopus laevis oocytes injected with cRNA
# T2 sequence (P13866 1-664 T395A): T1 sequence (P13866 1-664 D268H) with H268D, T395A
# Experimental: as §1, §2
# [4] = test system: hSGLT1 F101C; design: method as in PMID 22159082; conditions: oocytes, 22 °C; cited from earlier work
# [5] = test system: hSGLT1 Y290C; design: method as in PMID 22159082; conditions: oocytes, 22 °C; cited from earlier work
smiles,measurement,setting,value
[Na+] [Na^+],K0.5 Na^+,[1],21 ± 1[20] mM
same,K0.5 Na^+,[2],17 ± 1.2 mM
same,K0.5 Na^+,[3],104 ± 50 mM
same,K0.5 Na^+,[4],9 ± 1[20] mM
same,K0.5 Na^+,[5],46 ± 5[20] mM
